Test results: patent publication US8722849B2, “Polypeptides” (Novo Nordisk A/S, priority 2011, dated 2014)
In brackets after ≈: the same amount, converted by molar mass. Read-outs that look alike come from different tables or passages of the source. Starred links: 1 amine or outer side, 2 acyl side, 3 side chain; linkers in the order of their positions; H or OH if unused. Positions of bridges follow the written chain, without caps; N, C: chain ends. Residues, ends and D or L forms follow the SMILES beside them. Groups on a side chain read outwards from the residue. *: point of attachment. C20 diacid = O=C(O)CCCCCCCCCCCCCCCCCCC(=O)*; γGlu = O=C(O)[C@H](CCC(=O)[*:2])N[*:1]

Legend:
food intake = assay: Assay (I) efficacy testing on appetite (food intake), ad libitum fed rat model; type: in vivo, Sprague Dawley (SD) rats; settings: 3 nmol/kg
Description: In the following examples reference is made to the following Assays: • Assay (I)— Experimental protocol for efficacy testing on appetite using an ad libitum fed rat model • ASSAY (II)a—Functional assay—Human calcitonin and amylin receptor assay • ASSAY (II)b—Functional assay—Rat calcitonin and rat amylin receptor assays • ASSAY (III)—ThT fibrillation assays for the assessment of physical stability of protein formulations • ASSAY (IV)—Determination of solubility • ASSAY (V)—Determination of binding to the human amylin receptor • ASSAY (VI)—Determination of the binding to the rat amylin receptor • ASSAY (VII)—Determination of binding to the human calcitonin receptor • ASSAY (VIII)—Determination of binding to the rat calcitonin receptor • ASSAY (IX)—pK—Determination of T % in mini-pig • ASSAY (X)—pK—Determination of T % in rat ASSAY (I)—Experimental Protocol for Efficacy Testing on Appetite Using an Ad Libitum Fed Rat Model
Sprague Dawley (SD) rats from Taconic Europe, Denmark are used for the experiments. The rats have a body weight 200-250 g at the start of experiment. The rats arrive at least 10-14 days before start of experiment to allow acclimatization to experimental settings. During this period the animals are handled at least 2 times. After arrival rats are housed individually for one week in a reversed light/dark phase (meaning that lights are off during daytime and on during nighttime) […]. Since rats are normally active and eat their major part of their daily food intake during the dark period, rats are dosed in the morning right before lights are turned off. This set-up results in the lowest data variation and highest test sensitivity. The experiment is conducted in the rats' home cages and rats have free access to food and water throughout the acclimatization period and the experiment period. Each dose of derivative is tested in a group of 5-8 rats. A vehicle group of 6-8 rats is included in each set of testing. Rats are dosed once according to body weight with a 0.01-3 mg/kg solution administered intraperitoneally (ip), orally (po) or subcutaneously (sc). The time of dosing is recorded for each group. After dosing, the rats are returned to their home cages, where they then have access to food and water. The food consumption is recorded individually continuously by on-line registration or manually every hour for 7 hours, and then after 24 h and sometimes 48 h. At the end of the experimental session, the animals are euthanised.
The individual data are recorded in Microsoft excel sheets. Outliers are excluded after applying the Grubbs statistical evaluation test for outliers, and the result is presented graphically using the GraphPad Prism program.

[1] = Assay (III) ThT fibrillation assay for physical stability; type: physicochemical
Method in brief: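 Freshly prepared formulations, pH-adjusted, with 1 μM ThT; four or eight replicates incubated at 37 °C under 960 rpm orbital shaking. Fluorescence (ex 444/em 485 nm) read every 20 min; […]. Peptide concentration measured by RP-HPLC before and after the run.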

[2] = Assay (IV) determination of solubility; type: physicochemical
Method in brief: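 Polypeptide in water (~500 nmol/ml) mixed 1:1 with 100 mM glycylglycine (pH 3.0–5.0) or bistrispropane (pH 6.0–8.0) buffers. Held 18 hours at room temperature, then centrifuged. Polypeptide remaining in solution quantified by HPLC.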

[3] = target: T1, human amylin receptor (amylin 3(a) receptor: human calcitonin receptor + RAMP-3) (Homo sapiens, UniProt O60896+P30988); assay: Assay (II)a functional CRE-luciferase assay, human amylin receptor; type: cell-based; settings: Table 2; BHK amylin 3(a)-receptor/CRE-luc cells
T1 construct: expressed in transfected cells; host or cells: BHK570
T1 sequence (P30988 25-474): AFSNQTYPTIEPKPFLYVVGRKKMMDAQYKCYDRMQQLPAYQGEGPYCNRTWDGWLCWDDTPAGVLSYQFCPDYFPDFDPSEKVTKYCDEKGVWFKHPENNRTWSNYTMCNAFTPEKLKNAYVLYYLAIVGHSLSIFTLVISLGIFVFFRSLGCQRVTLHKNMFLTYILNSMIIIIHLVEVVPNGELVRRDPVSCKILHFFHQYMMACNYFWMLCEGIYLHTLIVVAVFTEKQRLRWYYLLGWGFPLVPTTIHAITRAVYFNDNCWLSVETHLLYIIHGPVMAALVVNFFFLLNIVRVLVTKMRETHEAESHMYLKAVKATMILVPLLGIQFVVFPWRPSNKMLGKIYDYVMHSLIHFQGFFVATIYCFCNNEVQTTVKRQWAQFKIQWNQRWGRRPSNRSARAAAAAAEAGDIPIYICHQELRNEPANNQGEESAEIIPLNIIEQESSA
T1 sequence (O60896 24-148 partner): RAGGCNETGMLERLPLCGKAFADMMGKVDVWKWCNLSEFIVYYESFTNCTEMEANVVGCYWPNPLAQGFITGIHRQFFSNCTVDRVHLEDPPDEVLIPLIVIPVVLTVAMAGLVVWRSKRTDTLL

[4] = target: T2, human calcitonin receptor (Homo sapiens, UniProt P30988); assay: Assay (II)a functional CRE-luciferase assay, human calcitonin receptor; type: cell-based; settings: Table 7; human calcitonin (CTa) receptor
T2 construct: expressed in transfected cells; host or cells: BHK570
T2 sequence (P30988 25-474): T1 sequence (P30988 25-474)

ThT pH 4.0 lag time ([1]; Table 8) [h] | ThT pH 4.0 lag time ([1]; ThT fibrillation assay) [h] | ThT pH 4.0 lag time (h) ([1]; ThT fibrillation assay) | ThT pH 4.0 lag time ([1]; Table 9) [h] | solubility at 18 h ([2]; bistrispropane buffer, pH 6, pH 6.0, read-out: Solubility pH 6.0) [µM] | solubility at 18 h ([2]; bistrispropane buffer, pH 6.5, pH 6.5, read-out: Solubility pH 6.5) [µM] | solubility at 18 h ([2]; bistrispropane buffer, pH 7, pH 7.0, read-out: Solubility pH 7.0) [µM] | solubility at 18 h ([2]; bistrispropane buffer, pH 7.5, pH 7.5, read-out: Solubility pH 7.5) [µM] | solubility at 18 h ([2]; bistrispropane buffer, pH 8, pH 8.0, read-out: Solubility pH 8.0) [µM] | solubility at 18 h ([2]; glycylglycine buffer, pH 3, pH 3.0, read-out: Solubility pH 3.0) [µM] | solubility at 18 h ([2]; glycylglycine buffer, pH 4, pH 4.0, 18 hours at room temperature, Table 2, read-out: Solubility pH 4.0) [µM] | solubility at 18 h ([2]; glycylglycine buffer, pH 4, pH 4.0, read-out: Solubility pH 4.0) [µM] | solubility at 18 h ([2]; glycylglycine buffer, pH 5, pH 5.0, read-out: Solubility pH 5.0) [µM] | EC50 [3] [nM] | EC50 [4] [nM] | SMILES | Food intake reduction 0-24 h 3 nmol/kg (%) (food intake) | Food intake reduction 24-48 h 3 nmol/kg (%) (food intake)
25 | 25 | 25 | – | – | – | – | – | – | – | – | – | – | – | – | CC[C@H](C)[C@H](NC(=O)[C@@H]1CCCN1C(=O)CNC(=O)[C@H](Cc1ccccc1)NC(=O)[C@H](CC(N)=O)NC(=O)[C@H](CC(N)=O)NC(=O)[C@H](CO)NC(=O)[C@H](CO)NC(=O)[C@H](Cc1c[nH]cn1)NC(=O)[C@H](Cc1c[nH]cn1)NC(=O)[C@H](CC(C)C)NC(=O)[C@H](Cc1ccccc1)NC(=O)[C@H](CCC(=O)O)NC(=O)[C@H](C)NC(=O)[C@H](CC(C)C)NC(=O)[C@H](CCCNC(=N)N)NC(=O)[C@H](CCC(N)=O)NC(=O)[C@@H](NC(=O)[C@H](C)NC(=O)[C@@H]1CSSC[C@H](NC(=O)[C@@H](N)CCCCNC(=O)CC[C@H](NC(=O)CCCCCCCCCCCCCCCCCCC(=O)O)C(=O)O)C(=O)N[C@@H](CC(N)=O)C(=O)N[C@@H]([C@@H](C)O)C(=O)N[C@@H](C)C(=O)N[C@@H]([C@@H](C)O)C(=O)N1)[C@@H](C)O)C(=O)N[C@@H](CC(C)C)C(=O)N1CCC[C@H]1C(=O)N1CCC[C@H]1C(=O)N[C@H](C(=O)N[C@@H](CC(N)=O)C(=O)N[C@H](C(=O)NCC(=O)N[C@@H](CO)C(=O)N[C@@H](Cc1c[nH]cn1)C(=O)N[C@H](C(=O)N[C@@H](Cc1ccc(O)cc1)C(N)=O)[C@@H](C)O)C(C)C)[C@@H](C)O [Example 87, N-epsilon1-[(S)-4-Carboxy-4-(19-carboxynonadecanoylamino)butyryl]-[Glu14,His17,His35]-pramlintide] (H-K([γGlu-C20 diacid])CNTATCATQRLAEFLHHSSNNFGPILPPTNVGSHTY-NH2; disulfide 2-7 (inferred)) | 66 | 47
>45 | >45 | >45 | >45 | – | – | – | – | – | – | – | – | – | – | – | CC[C@H](C)[C@H](NC(=O)[C@@H]1CCCN1C(=O)CNC(=O)[C@H](Cc1ccccc1)NC(=O)[C@H](CC(N)=O)NC(=O)[C@H](CC(N)=O)NC(=O)[C@H](CO)NC(=O)[C@H](CO)NC(=O)[C@H](Cc1c[nH]cn1)NC(=O)[C@H](CCCNC(=N)N)NC(=O)[C@H](CC(C)C)NC(=O)[C@H](Cc1ccccc1)NC(=O)[C@H](CCC(=O)O)NC(=O)[C@H](C)NC(=O)[C@H](CC(C)C)NC(=O)[C@H](CCCNC(=N)N)NC(=O)[C@H](CCC(N)=O)NC(=O)[C@@H](NC(=O)[C@H](C)NC(=O)[C@@H]1CSSC[C@H](NC(=O)[C@H](CCCCN)NC(=O)CC[C@H](NC(=O)CCCCCCCCCCCCCCCCCCC(=O)O)C(=O)O)C(=O)N[C@@H](CC(N)=O)C(=O)N[C@@H]([C@@H](C)O)C(=O)N[C@@H](C)C(=O)N[C@@H]([C@@H](C)O)C(=O)N1)[C@@H](C)O)C(=O)N[C@@H](CC(C)C)C(=O)N1CCC[C@H]1C(=O)N1CCC[C@H]1C(=O)N[C@H](C(=O)N[C@@H](CC(N)=O)C(=O)N[C@H](C(=O)NCC(=O)N[C@@H](CO)C(=O)N[C@@H](Cc1c[nH]cn1)C(=O)N[C@H](C(=O)N[C@@H](Cc1ccc(O)cc1)C(N)=O)[C@@H](C)O)C(C)C)[C@@H](C)O [Example 57, N-alpha-[(S)-4-Carboxy-4-(19-carboxynonadecanoylamino)butyryl]-[Glu14,Arg17,His35]-pramlintide] ({C20 diacid-γGlu}-KCNTATCATQRLAEFLRHSSNNFGPILPPTNVGSHTY-NH2; disulfide 2-7 (inferred); C-terminus assumed) | 17 | 0
– | >45 | >45 | – | > 200 | 120 (≈ 539 µg/mL) | 44 (≈ 198 µg/mL) | 79 (≈ 355 µg/mL) | 173 (≈ 777 µg/mL) | > 200 | > 200 | > 200 | > 200 | 0.487 | 0.124 | CC[C@H](C)[C@H](NC(=O)[C@@H]1CCCN1C(=O)CNC(=O)[C@H](Cc1ccccc1)NC(=O)[C@H](CC(N)=O)NC(=O)[C@H](CC(N)=O)NC(=O)[C@H](CO)NC(=O)[C@H](CO)NC(=O)[C@H](Cc1c[nH]cn1)NC(=O)[C@H](Cc1c[nH]cn1)NC(=O)[C@H](CC(C)C)NC(=O)[C@H](Cc1ccccc1)NC(=O)[C@H](CCC(=O)O)NC(=O)[C@H](C)NC(=O)[C@H](CC(C)C)NC(=O)[C@H](CCCNC(=N)N)NC(=O)[C@H](CCC(N)=O)NC(=O)[C@@H](NC(=O)[C@H](C)NC(=O)[C@@H]1CSSC[C@H](NC(=O)[C@H](CCCCN)NC(=O)CC[C@H](NC(=O)CCCCCCCCCCCCCCCCCCC(=O)O)C(=O)O)C(=O)N[C@@H](CC(N)=O)C(=O)N[C@@H]([C@@H](C)O)C(=O)N[C@@H](C)C(=O)N[C@@H]([C@@H](C)O)C(=O)N1)[C@@H](C)O)C(=O)N[C@@H](CC(C)C)C(=O)N1CCC[C@H]1C(=O)N1CCC[C@H]1C(=O)N[C@H](C(=O)N[C@@H](CC(N)=O)C(=O)N[C@@H](Cc1c[nH]cn1)C(=O)NCC(=O)N[C@@H](CO)C(=O)N[C@@H](CC(N)=O)C(=O)N[C@H](C(=O)N[C@@H](Cc1ccc(O)cc1)C(N)=O)[C@@H](C)O)[C@@H](C)O [Example 116, N-alpha-[(S)-4-Carboxy-4-(19-carboxynonadecanoylamino)butyryl]-[Glu14,His17,His32]-pramlintide] ({C20 diacid-γGlu}-KCNTATCATQRLAEFLHHSSNNFGPILPPTNHGSNTY-NH2; disulfide 2-7 (inferred); C-terminus assumed) | – | –
